According to article PMC5218480 (PLoS ONE, 2017):

Tested on: MV-4-11 cells
Experiment: Gene expression microarray analysis (Affymetrix PrimeView) and GSEA
Format: cell-based, human
Parameters: RFU PODN (11730768_x_at) / Fold change /veh PODN (11730768_x_at) / RFU LINC00158 (11744669_a_at) / Fold change /veh LINC00158 (11744669_a_at) / RFU DUSP10 (11751237_a_at) / Fold change /veh DUSP10 (11751237_a_at) / RFU ID3 (11757404_x_at) / Fold change /veh ID3 (11757404_x_at) / RFU PLEKHG5 (11737974_s_at) / Fold change /veh PLEKHG5 (11737974_s_at) / RFU LRRC4B (11730491_at) / Fold change /veh LRRC4B (11730491_at) / RFU GIMAP4 (11747438_a_at) / Fold change /veh GIMAP4 (11747438_a_at) / RFU KRT8 (11758183_x_at) / Fold change /veh KRT8 (11758183_x_at) / RFU CNN1 (11734310_a_at) / Fold change /veh CNN1 (11734310_a_at) / RFU VPS37D (11726825_at) / Fold change /veh VPS37D (11726825_at) / RFU C10orf10 (11716522_x_at) / Fold change /veh C10orf10 (11716522_x_at) / RFU KIR2DL2 /// KIR2DL4 /// KIR2DL5A /// KIR2DL5B /// KIR2DS1 /// KIR2DS2 /// KIR2DS3 /// KIR2DS4 /// KIR3DL3 /// KIR3DL3 /// KIR3DS1 (11738374_at) / Fold change /veh KIR2DL2 /// KIR2DL4 /// KIR2DL5A /// KIR2DL5B /// KIR2DS1 /// KIR2DS2 /// KIR2DS3 /// KIR2DS4 /// KIR3DL3 /// KIR3DL3 /// KIR3DS1 (11738374_at) / RFU C1QL1 (11718748_at) / Fold change /veh C1QL1 (11718748_at) / RFU TMPRSS4 (11747572_a_at) / Fold change /veh TMPRSS4 (11747572_a_at) / RFU HAMP (11756126_x_at) / Fold change /veh HAMP (11756126_x_at) / RFU RNFT2 (11725882_a_at) / Fold change /veh RNFT2 (11725882_a_at) / RFU NR4A2 (11747474_a_at) / Fold change /veh NR4A2 (11747474_a_at) / RFU ABCC12 (11746883_a_at) / Fold change /veh ABCC12 (11746883_a_at) / RFU TMEM136 (11760407_x_at) / Fold change /veh TMEM136 (11760407_x_at) / RFU CLDN22 /// WWC2 (11732394_at) / Fold change /veh CLDN22 /// WWC2 (11732394_at) / RFU HLA-DPB1 (11760878_x_at) / Fold change /veh HLA-DPB1 (11760878_x_at) / RFU SPINT1 (11716480_a_at) / Fold change /veh SPINT1 (11716480_a_at) / RFU GAP43 (11754022_s_at) / Fold change /veh GAP43 (11754022_s_at) / RFU A4GNT (11735810_at) / Fold change /veh A4GNT (11735810_at) / RFU PRB3 (11715151_x_at) / Fold change /veh PRB3 (11715151_x_at) / RFU TUBB4B (11761932_at) / Fold change /veh TUBB4B (11761932_at) / RFU CAPN14 (11732068_a_at) / Fold change /veh CAPN14 (11732068_a_at) / RFU TMCC2 (11721928_a_at) / Fold change /veh TMCC2 (11721928_a_at) / RFU IRGQ (11745062_a_at) / Fold change /veh IRGQ (11745062_a_at) / RFU FAM174B (11720279_a_at) / Fold change /veh FAM174B (11720279_a_at) / RFU TMPRSS4 (11748680_a_at) / Fold change /veh TMPRSS4 (11748680_a_at) / RFU FAM212B (11763350_a_at) / Fold change /veh FAM212B (11763350_a_at) / RFU PLEKHG5 (11743358_a_at) / Fold change /veh PLEKHG5 (11743358_a_at) / RFU ZSCAN30 (11745921_a_at) / Fold change /veh ZSCAN30 (11745921_a_at) / RFU CMKLR1 (11741424_a_at) / Fold change /veh CMKLR1 (11741424_a_at) / RFU LOC101060620 /// MAPK8IP1 (11723275_at) / Fold change /veh LOC101060620 /// MAPK8IP1 (11723275_at) / RFU SPTSSB (11747773_x_at) / Fold change /veh SPTSSB (11747773_x_at) / RFU PRSS12 (11739890_at) / Fold change /veh PRSS12 (11739890_at) / RFU BIN1 (11741810_x_at) / Fold change /veh BIN1 (11741810_x_at) / RFU WNT11 (11732464_a_at) / Fold change /veh WNT11 (11732464_a_at) / RFU C10orf10 (11716521_a_at) / Fold change /veh C10orf10 (11716521_a_at) / RFU C5orf56 (11738089_at) / Fold change /veh C5orf56 (11738089_at) / RFU CYB561 (11721691_x_at) / Fold change /veh CYB561 (11721691_x_at) / RFU ANKRD19P (11752326_a_at) / Fold change /veh ANKRD19P (11752326_a_at) / RFU OR2T12 /// OR2T33 /// OR2T8 (11738714_s_at) / Fold change /veh OR2T12 /// OR2T33 /// OR2T8 (11738714_s_at) / RFU VCAN (11748164_a_at) / Fold change /veh VCAN (11748164_a_at) / RFU JSRP1 (11732532_at) / Fold change /veh JSRP1 (11732532_at) / RFU KRTAP10-11 (11738290_x_at) / Fold change /veh KRTAP10-11 (11738290_x_at) / RFU MYO3A (11730013_a_at) / Fold change /veh MYO3A (11730013_a_at) / RFU EBF3 (11725865_a_at) / Fold change /veh EBF3 (11725865_a_at) / RFU CAMK2N1 (11719241_x_at) / Fold change /veh CAMK2N1 (11719241_x_at) / RFU C5orf56 (11738088_a_at) / Fold change /veh C5orf56 (11738088_a_at) / RFU OLFML3 (11715873_a_at) / Fold change /veh OLFML3 (11715873_a_at) / RFU LOC100653217 /// NTM (11731650_a_at) / Fold change /veh LOC100653217 /// NTM (11731650_a_at) / RFU MAPK11 (11762145_a_at) / Fold change /veh MAPK11 (11762145_a_at) / RFU FIZ1 (11724087_x_at) / Fold change /veh FIZ1 (11724087_x_at) / RFU OASL (11726364_x_at) / Fold change /veh OASL (11726364_x_at) / RFU SOX15 (11748057_x_at) / Fold change /veh SOX15 (11748057_x_at) / RFU CD79A (11719716_a_at) / Fold change /veh CD79A (11719716_a_at) / RFU HIST1H1D (11736915_at) / Fold change /veh HIST1H1D (11736915_at) / RFU CASKIN2 (11723855_a_at) / Fold change /veh CASKIN2 (11723855_a_at) / RFU LOC730098 (11760151_x_at) / Fold change /veh LOC730098 (11760151_x_at) / RFU OR4N2 (11742367_at) / Fold change /veh OR4N2 (11742367_at) / RFU PRRT2 (11749266_a_at) / Fold change /veh PRRT2 (11749266_a_at) / RFU SNX32 (11753110_a_at) / Fold change /veh SNX32 (11753110_a_at) / RFU CDHR5 (11726645_a_at) / Fold change /veh CDHR5 (11726645_a_at) / RFU RCAN1 (11760418_a_at) / Fold change /veh RCAN1 (11760418_a_at) / RFU FAM167A (11723789_a_at) / Fold change /veh FAM167A (11723789_a_at) / RFU FAM26E (11764081_at) / Fold change /veh FAM26E (11764081_at) / RFU ISYNA1 (11749810_s_at) / Fold change /veh ISYNA1 (11749810_s_at) / RFU ACY1 (11761880_at) / Fold change /veh ACY1 (11761880_at) / RFU 11764098_at / Fold change /veh 11764098_at / RFU SAMD14 (11745864_x_at) / Fold change /veh SAMD14 (11745864_x_at) / RFU NPB (11741838_a_at) / Fold change /veh NPB (11741838_a_at) / RFU TMPRSS6 (11731388_a_at) / Fold change /veh TMPRSS6 (11731388_a_at) / RFU KRTAP10-2 (11738614_at) / Fold change /veh KRTAP10-2 (11738614_at) / RFU ARHGAP8 /// PRR5-ARHGAP8 (11727945_x_at) / Fold change /veh ARHGAP8 /// PRR5-ARHGAP8 (11727945_x_at) / RFU KRTAP5-7 /// NADSYN1 (11734609_at) / Fold change /veh KRTAP5-7 /// NADSYN1 (11734609_at) / RFU RASL12 (11751679_a_at) / Fold change /veh RASL12 (11751679_a_at) / RFU CDKN2B (11736163_a_at) / Fold change /veh CDKN2B (11736163_a_at) / RFU PRF1 (11729649_at) / Fold change /veh PRF1 (11729649_at) / RFU, ZNF638 /// ZNF638-IT1 / Fold change vs veh, ZNF638 /// ZNF638-IT1 / RFU, PANK3 / Fold change vs veh, PANK3 / RFU, SH3YL1 / Fold change vs veh, SH3YL1 / RFU, ZEB2 / Fold change vs veh, ZEB2 / RFU, NRIP1 / Fold change vs veh, NRIP1 / RFU, PTTG1IP / Fold change vs veh, PTTG1IP / RFU, CAPN2 / Fold change vs veh, CAPN2 / RFU, MED14 / Fold change vs veh, MED14 / RFU, SNORA58 / Fold change vs veh, SNORA58 / RFU, C1orf63 / Fold change vs veh, C1orf63 / RFU, LRRFIP1 / Fold change vs veh, LRRFIP1 / RFU, NDUFAF7 / Fold change vs veh, NDUFAF7 / RFU, SLC12A2 / Fold change vs veh, SLC12A2 / RFU, IBTK / Fold change vs veh, IBTK / RFU, ESF1 / Fold change vs veh, ESF1 / Fold change vs veh, TMEM50B / RFU, TAOK1 / Fold change vs veh, TAOK1 / RFU, ACBD3 / Fold change vs veh, ACBD3 / RFU, TMA16 / Fold change vs veh, TMA16 / RFU, RWDD3 / Fold change vs veh, RWDD3 / RFU, BCAT1 / Fold change vs veh, BCAT1 / RFU, EDEM3 / Fold change vs veh, EDEM3 / RFU, TMEM33 / Fold change vs veh, TMEM33 / RFU, WDR75 / Fold change vs veh, WDR75 / RFU, AHCTF1 / Fold change vs veh, AHCTF1 / RFU, TFRC / Fold change vs veh, TFRC / RFU, ZDHHC17 / Fold change vs veh, ZDHHC17 / RFU, NOM1 / Fold change vs veh, NOM1 / RFU, ARL8B / Fold change vs veh, ARL8B / RFU, ZBTB11 / Fold change vs veh, ZBTB11 / RFU, TAMM41 / Fold change vs veh, TAMM41 / RFU, KIAA1704 /// LOC100996395 / Fold change vs veh, KIAA1704 /// LOC100996395 / RFU, ING1 / Fold change vs veh, ING1 / RFU, TRMT61B / Fold change vs veh, TRMT61B / RFU, FUBP3 / Fold change vs veh, FUBP3 / RFU, TP53 / Fold change vs veh, TP53 / RFU, TNKS2 / Fold change vs veh, TNKS2 / RFU, ZFP14 / Fold change vs veh, ZFP14 / RFU, ACTR2 / Fold change vs veh, ACTR2 / RFU, PPP3R1 / Fold change vs veh, PPP3R1 / RFU, PIK3R1 / Fold change vs veh, PIK3R1 / RFU, HNRNPA1 / Fold change vs veh, HNRNPA1 / RFU, RNF170 / Fold change vs veh, RNF170 / RFU, ZNF28 / Fold change vs veh, ZNF28 / RFU, RNGTT / Fold change vs veh, RNGTT / RFU, OGT / Fold change vs veh, OGT / RFU, BRD1 / Fold change vs veh, BRD1 / RFU, MARS / Fold change vs veh, MARS / RFU, ZNF655 / Fold change vs veh, ZNF655 / RFU, FAHD1 / Fold change vs veh, FAHD1 / RFU, BDP1 / Fold change vs veh, BDP1 / RFU, LRRCC1 / Fold change vs veh, LRRCC1 / RFU, ARID1A / Fold change vs veh, ARID1A / RFU, ZNF146 / Fold change vs veh, ZNF146 / RFU, ZNF330 / Fold change vs veh, ZNF330 / RFU, GPN3 / Fold change vs veh, GPN3 / RFU, C9orf123 / Fold change vs veh, C9orf123 / RFU, N4BP2L2 / Fold change vs veh, N4BP2L2 / RFU, ARFIP1 / Fold change vs veh, ARFIP1 / RFU, FAM179B / Fold change vs veh, FAM179B / RFU, BCL10 / Fold change vs veh, BCL10 / RFU, UHRF1BP1L / Fold change vs veh, UHRF1BP1L / RFU, BET1 / Fold change vs veh, BET1 / RFU, CNOT2 / Fold change vs veh, CNOT2 / RFU, ZNF268 / Fold change vs veh, ZNF268 / Fold change vs veh, ZNF507 / RFU, DGCR2 / Fold change vs veh, DGCR2 / RFU, WDSUB1 / Fold change vs veh, WDSUB1 / Fold change vs veh, HSP90B1 /// MIR3652 / RFU, ADSS / Fold change vs veh, ADSS / RFU, GK / Fold change vs veh, GK / RFU, ZNF148 / Fold change vs veh, ZNF148 / RFU, TAF9 / Fold change vs veh, TAF9 / RFU, SLC1A5 / Fold change vs veh, SLC1A5 / RFU, SLMO2 / Fold change vs veh, SLMO2 / RFU, ABCC4 / Fold change vs veh, ABCC4 / RFU, LOC101060439 /// RAP1B / Fold change vs veh, LOC101060439 /// RAP1B / RFU, RFX7 / Fold change vs veh, RFX7 / RFU, GTPBP10 / Fold change vs veh, GTPBP10 / RFU, CNEP1R1 / Fold change vs veh, CNEP1R1 / RFU, BIVM-ERCC5 /// ERCC5 / Fold change vs veh, BIVM-ERCC5 /// ERCC5 / RFU, ILF3 / Fold change vs veh, ILF3 / RFU 11762660_at / Fold change /veh 11762660_at / RFU VCAN (11757783_s_at) / Fold change /veh VCAN (11757783_s_at) / RFU DDX43 (11728927_at) / Fold change /veh DDX43 (11728927_at) / RFU KRT8 (11758188_x_at) / Fold change /veh KRT8 (11758188_x_at) / RFU NKD1 (11759106_at) / Fold change /veh NKD1 (11759106_at) / RFU SRD5A1 (11742802_a_at) / Fold change /veh SRD5A1 (11742802_a_at) / RFU TPSAB1 /// TPSB2 (11721975_s_at) / Fold change /veh TPSAB1 /// TPSB2 (11721975_s_at) / RFU GSTM3 (11746129_a_at) / Fold change /veh GSTM3 (11746129_a_at) / RFU IL23R (11737362_x_at) / Fold change /veh IL23R (11737362_x_at) / RFU TMEM51 (11727254_a_at) / Fold change /veh TMEM51 (11727254_a_at) / RFU PIWIL2 (11732686_x_at) / Fold change /veh PIWIL2 (11732686_x_at) / RFU ORM1 (11744905_x_at) / Fold change /veh ORM1 (11744905_x_at) / RFU CCDC152 (11743942_at) / Fold change /veh CCDC152 (11743942_at) / RFU ECM1 (11717891_a_at) / Fold change /veh ECM1 (11717891_a_at) / RFU IL23R (11748794_a_at) / Fold change /veh IL23R (11748794_a_at) / RFU TNFAIP8L3 (11732012_x_at) / Fold change /veh TNFAIP8L3 (11732012_x_at) / RFU MBOAT4 (11741988_at) / Fold change /veh MBOAT4 (11741988_at) / RFU 11764193_at / Fold change /veh 11764193_at / RFU TMEM53 (11763286_at) / Fold change /veh TMEM53 (11763286_at) / RFU MAGEB2 (11727129_at) / Fold change /veh MAGEB2 (11727129_at) / RFU TMEM200A (11744735_a_at) / Fold change /veh TMEM200A (11744735_a_at) / RFU CCDC152 (11751479_a_at) / Fold change /veh CCDC152 (11751479_a_at) / RFU FAM211A (11726209_a_at) / Fold change /veh FAM211A (11726209_a_at) / RFU RGS16 (11746705_a_at) / Fold change /veh RGS16 (11746705_a_at) / RFU VCAN (11755009_s_at) / Fold change /veh VCAN (11755009_s_at) / RFU RHOB (11743442_s_at) / Fold change /veh RHOB (11743442_s_at) / RFU RGS16 (11720943_a_at) / Fold change /veh RGS16 (11720943_a_at) / RFU RGS16 (11720944_at) / Fold change /veh RGS16 (11720944_at) / RFU, VPS4B / Fold change vs veh, VPS4B / RFU, CREB1 / Fold change vs veh, CREB1 / RFU, DNAJC13 / Fold change vs veh, DNAJC13 / RFU, GNAQ / Fold change vs veh, GNAQ / RFU, CDK5R1 / Fold change vs veh, CDK5R1 / RFU, ZRANB3 / Fold change vs veh, ZRANB3 / RFU, CUL4A / Fold change vs veh, CUL4A / RFU, CCNY / Fold change vs veh, CCNY / RFU, UFL1 / Fold change vs veh, UFL1 / RFU, COG3 / Fold change vs veh, COG3 / RFU, DIAPH2 / Fold change vs veh, DIAPH2 / RFU, SKA2 / Fold change vs veh, SKA2 / RFU, AFF3 / Fold change vs veh, AFF3 / RFU, LMF1 / Fold change vs veh, LMF1 / RFU, IPO11 / Fold change vs veh, IPO11 / RFU, DFFB / Fold change vs veh, DFFB / RFU, FOXP1 / Fold change vs veh, FOXP1 / RFU, CARD8 / Fold change vs veh, CARD8 / RFU, STRN3 / Fold change vs veh, STRN3 / RFU, ADK / Fold change vs veh, ADK / RFU, RASSF2 / Fold change vs veh, RASSF2 / RFU, WIPF1 / Fold change vs veh, WIPF1 / RFU, LARP1B / Fold change vs veh, LARP1B / RFU, RASA1 / Fold change vs veh, RASA1 / RFU, RB1 / Fold change vs veh, RB1 / RFU, PPFIA1 / Fold change vs veh, PPFIA1 / RFU, MAT2A / Fold change vs veh, MAT2A / RFU, CCT5 / Fold change vs veh, CCT5 / RFU, WDR92 / Fold change vs veh, WDR92 / RFU, CUX1 / Fold change vs veh, CUX1 / RFU, TTC7A / Fold change vs veh, TTC7A / RFU, TMEM135 / Fold change vs veh, TMEM135 / RFU, DEPTOR / Fold change vs veh, DEPTOR / RFU, CPM / Fold change vs veh, CPM / RFU, DNAJB6 / Fold change vs veh, DNAJB6 / RFU, CACNA2D3 / Fold change vs veh, CACNA2D3 / RFU, DTX4 / Fold change vs veh, DTX4 / RFU, TFCP2 / Fold change vs veh, TFCP2 / RFU, GMCL1 /// GMCL1P1 / Fold change vs veh, GMCL1 /// GMCL1P1 / RFU, AEBP2 / Fold change vs veh, AEBP2 / RFU, SNHG1 /// SNORD22 /// SNORD25 /// SNORD26 /// SNORD27 /// SNORD28 /// SNORD29 /// SNORD31 / Fold change vs veh, SNHG1 /// SNORD22 /// SNORD25 /// SNORD26 /// SNORD27 /// SNORD28 /// SNORD29 /// SNORD31 / Fold change (Aza/veh), C12orf56 (ProbeSet 11735607_a_at) / Fold change (ACY-1035/veh), C12orf56 (ProbeSet 11735607_a_at) / Fold change (Aza/veh), FGFR1OP (ProbeSet 11751329_s_at) / Fold change (ACY-1035/veh), FGFR1OP (ProbeSet 11751329_s_at) / Fold change (Aza/veh), VPS36 (ProbeSet 11739960_a_at) / Fold change (ACY-1035/veh), VPS36 (ProbeSet 11739960_a_at) / RFU SYPL1 (11715823_x_at) / Fold change /veh SYPL1 (11715823_x_at) / RFU IGFBP7 (11715501_s_at) / Fold change /veh IGFBP7 (11715501_s_at) / RFU REEP3 (11722064_at) / Fold change /veh REEP3 (11722064_at) / RFU IGLL1 (11728026_x_at) / Fold change /veh IGLL1 (11728026_x_at): dose or concentration left out as unconfirmed
Conditions: ProbeSet 11732154_at; LIST B

## Nc1ccc(-c2cccs2)cc1NC(=O)c1ccc2c(c1)cc(C1CC1)n2CCN1CCOCC1 [ACY-1035]
  RFU, OGT: 340.88 RFU
